Values of other authors, collected in patent publication US9201077B2 (Colorado State University Research Foundation, priority 2009, dated 2015).

Legend:
[1] = system: Anti-Progesterone (R4859) Antibody raised against 11α-hemisuccinate progesterone; conditions: tested by UC Davis Endocrinology Laboratory
[2] = system: antibody used in progesterone assays; conditions: conventional progesterone assay

Row | SMILES | % Cross Reaction [1] [%] | cross-reaction with the antibody used in progesterone assays [2]
1 | CC(=O)[C@H]1CC[C@H]2[C@@H]3CC[C@H]4CC(=O)CC[C@]4(C)[C@H]3CC[C@]12C [5α-Pregnane-3,20-dione] | 12.19 | 
2 | CC(=O)[C@H]1CC[C@H]2[C@@H]3CCC4=CC(=O)CC[C@]4(C)[C@H]3[C@H](O)C[C@]12C [11α-OH-Progesterone] | 40.00 | 
3 | CC(=O)[C@@]1(O)CC[C@H]2[C@@H]3CCC4=CC(=O)CC[C@]4(C)[C@H]3CC[C@@]21C [17α-OH-Progesterone] | 0.38 | 
4 | C[C@H](O)[C@H]1CC[C@H]2[C@@H]3CCC4=CC(=O)CC[C@]4(C)[C@H]3CC[C@]12C [20α-OH-Progesterone] | 0.13 | 
5 | C[C@@H](O)[C@H]1CC[C@H]2[C@@H]3CCC4=CC(=O)CC[C@]4(C)[C@H]3CC[C@]12C [20β-OH-Progesterone] | 0.13 | 
6 | C[C@]12CCC(=O)C=C1CC[C@@H]1[C@@H]2[C@@H](O)C[C@@]2(C)[C@H]1CC[C@]2(O)C(=O)CO [Cortisol] | <0.04 | 
7 | C[C@]12CC[C@@H]3c4ccc(O)cc4CC[C@H]3[C@@H]1CC[C@@H]2O [Estradiol 17β] | <0.01 | 
8 | C[C@H](O)[C@H]1CC[C@H]2[C@@H]3CC[C@@H]4C[C@H](O)CC[C@]4(C)[C@H]3CC[C@]12C [Pregnanediol] | <0.01 | 
9 | CC(=O)[C@H]1CC[C@H]2[C@@H]3CC=C4C[C@@H](O)CC[C@]4(C)[C@H]3CC[C@]12C [Pregnenolone] | 0.12 | 
10 | CC(=O)[C@H]1CC[C@H]2[C@@H]3CCC4=CC(=O)CC[C@]4(C)[C@H]3CC[C@]12C [Progesterone] | 100.00 | 
11 | C[C@]12CC[C@H]3[C@@H](CCC4=CC(=O)CC[C@@]43C)[C@@H]1CC[C@@H]2O [Testosterone] | <0.01 | 
12 | C=CC[C@]1(O)CC[C@H]2[C@@H]3CCC4=CC(=O)CCC4=C3C=C[C@@]21C [altrenogest] |  | does not cross-react
